From patent US11246874B1, “Treatment of COVID-19” (Oxygen Biotech LLC, priority 2021, dated 2022)

Assays:
Type in all cases: cell-based
[1] = system: SARS-CoV-2 virus (strain SARS-CoV-2/human/Czech Republic/951/2020); experiment: Antiviral testing in Vero-E6 cells, virus titer by plaque titration; details: Vero-E6, 3.8 μg/μl, MOI 0.1, 48 h
Method: Confluent culture of Vero-E6 cells (ATCC CRL-1586) was used to test for antiviral activity. Cells were cultured in a 96-well microtiter plate (2×10^4 cells per well) for 24 h at 37° C. and 5% CO2. The culture medium was then aspirated and replaced with fresh medium containing the test substance in a concentration range of 0-3.8 μg/μl. At the same time, the cells were infected with the SARS-CoV-2 virus (strain SARS-CoV-2/human/Czech Republic/951/2020) at a multiplicity of infection of 0.1. The thus treated and infected cells were incubated for 48 h at 37° C. and 5% CO2. The medium was then aspirated from the culture wells and the virus titer was determined by plaque titration (Stefanik et al., Microorganisms 2021, 9 (3), 471; https://doi.org/10.3390/microorganisms9030471).
Results are depicted in FIG. 2.

[2] = system: Vero-E6 cells (ATCC CRL-1586); experiment: Cytotoxicity in Vero-E6 cell culture (Cell Counting Kit-8); details: 48 h incubation, range 0-15.2 μg/μl
Method: The toxicity of the test substance was measured in a culture of Vero-E6 cells (ATCC CRL-1586). Cells were cultured in a 96-well microtiter plate (2×10^4 cells per well) for 24 h at 37° C. and 5% CO2. Then, the test substance was added to the cells in a concentration range of 0-15.2 μg/μ1, and the thus treated cells were subsequently incubated for another 48 h. The viability of the cells was then determined using the Cell Counting Kit-8 kit (Dojindo Molecular Technologies, Munich, Germany), exactly according to the manufacturer's instructions. Results are depicted in FIG. 1. The maximum non-toxic concentration of test substance in Vero-E6 cell culture was 3.8 μg/μl.

[3] = system: SARS-CoV-2 virus, strain S-007; experiment: Infection of Vero cells with SARS-CoV-2; viral RNA (E-gene) in supernatant by 1-step RT-qPCR; details: bazedoxifene 10 μM in DMSO, 2 days of culture
Method: 0.15×10^6/ml Vero cells were infected with SARS-CoV-2 virus, an isolate from the environment, strain designated as S-007, provided by the Těchonin Biological Protection Department. Vero cells were then incubated in Dulbecco's Modified Eagle's Medium (DMEM) with 2% fetal bovine serum (FBS), DMSO 1 μl/ml, or in culture medium with bazedoxifene 10 […] in DMSO dosed from a starting stock solution of 10 mM bazedoxifene in DMSO, corresponding to a bazedoxifene concentration of […]. After 2 days of culture, the virus was quantified in the cell supernatant as follows.
Viral RNA was detected by 1-step RT-qPCR. Total RNA was isolated from 200 μl of supernatant of SARS-CoV-2 infected cells using magnetic beads. SARS-CoV-2 RNA was determined by amplifying the SARS-CoV-2 E-gene (Generi Biotech) using the SensiFast Probe One-Step Kit (BioLine) and Light Cycler 480 II (Roche). Viral RNA was quantified absolutely using a calibration curve.

Substance: bazedoxifene
- decrease of titer in the treated group ([1]; versus control group): approximately 1 log10 pfu/ml
- mean virus titer ([1]; control group 7.4 log10 pfu/ml): 6.3 log10 pfu/ml
- maximum non-toxic concentration [2]: 3.8 µg/µL
- % of DMSO ([3]; E-gene copies): 0.17%
- Fold decrease compared to DMSO ([3]; E-gene copies): 578.09
- E-gene No. of copies of the gene/ml ([3]; cell supernatant): 5.39 × 10^7 copies of the gene/ml
